SMILES strings stand for the structures.

Data set [1] can be described thus: Bioavailability of the solid form of Compound I. As to conditions: no species, dose or data printed.
Data set [2] in a line: Thermodynamic stability of solid forms of Compound I. It is filed as physicochemical. The settings on record: compared with other forms of Compound I; no method or data given.

On to `Cc1nn(C)cc1S(=O)(=O)NC(=O)c1ccc(-n2ccc(OCC(C)(C)C(F)(F)F)n2)nc1N1C[C@@H](C)CC1(C)C` [Crystalline Compound I Form A, N-(1,3-dimethylpyrazol-4-yl)sulfonyl-6-[3-(3,3,3-trifluoro-2,2-dimethyl-propoxy)pyrazol-1-yl]-2-[(4S)-2,2,4-trimethylpyrrolidin-1-yl]pyridine-3-carboxamide], for which the bioavailability result in data set [1] is “good bioavailability”. For the same compound, the “thermodynamic stability of the solid form” value in data set [2] is listed as “most thermodynamically stable form”.

These data come from patent publication US20260034064A1, “COMPOSITIONS FOR THE TREATMENT OF CFTR-MEDIATED DISEASES” (Vertex Pharmaceuticals Incorporated, priority 2022, published 2026).
